Reference: BindingDB's records for doi:10.1111/cbdd.12126 (Shaoyang University, 2013)
pIC50: −log10 of the molar value.

molecular target: T1, Polyphenol oxidase 2 (Agaricus bisporus, UniProt O42713); assay: Spectrophotometric Assay; settings: pH 6.8; 25 °C
T1 sequence (O42713 whole entry): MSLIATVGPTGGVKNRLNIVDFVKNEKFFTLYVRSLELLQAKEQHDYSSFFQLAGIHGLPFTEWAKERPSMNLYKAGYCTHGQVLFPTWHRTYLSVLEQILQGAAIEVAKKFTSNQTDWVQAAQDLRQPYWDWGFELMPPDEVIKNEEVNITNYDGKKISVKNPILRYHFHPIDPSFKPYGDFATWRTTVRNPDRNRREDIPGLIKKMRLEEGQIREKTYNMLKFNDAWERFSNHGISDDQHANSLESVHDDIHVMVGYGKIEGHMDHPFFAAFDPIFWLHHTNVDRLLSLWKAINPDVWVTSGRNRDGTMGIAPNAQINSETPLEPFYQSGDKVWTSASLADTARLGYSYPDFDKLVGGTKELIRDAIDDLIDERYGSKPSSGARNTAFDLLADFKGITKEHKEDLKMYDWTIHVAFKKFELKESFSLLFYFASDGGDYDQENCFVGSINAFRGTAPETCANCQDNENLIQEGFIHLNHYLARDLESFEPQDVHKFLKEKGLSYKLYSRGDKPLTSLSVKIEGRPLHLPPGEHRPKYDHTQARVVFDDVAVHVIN
Protocol: All compounds were dissolved in DMSO (final DMSO concentration in test solution was 2.0%). Phosphate buffer, pH 6.8, was use to dilute the DMSO stock solution of test compounds. Thirty units of mushroom tyrosinase (0.5 mg/mL) were first pre-incubated with the compounds, in 50 mM phosphate buffer (pH 6.8), for 10 min at 25°C, followed by addition of L-DOPA (0.5 mM). The enzyme reaction was monitored by measuring the change in absorbance at 475 nm of formation of the DOPA chrome for 1 min. The measurement was performed in triplicate for each concentration and averaged before further calculation.

**Q.** How did the pIC50 turn out when `O=C(/C=C/c1ccccc1)c1ccc(O)cc1O` [1-(2,4-dihydroxyphenyl)-3-phenylprop-2-en-1-one (4)] was run?
**A.** 3.96

**Q.** With `O=C(/C=C/c1ccccc1)c1cccc(Cl)c1` [1-(3-chlorophenyl)-3-phenylprop-2-en-1-one (11)] as the molecule, how does the pIC50 read?
**A.** 3.93

**Q.** `COc1ccc(C(=O)/C=C/c2ccccc2)cc1` [1-(4-methoxyphenyl)-3-phenylprop-2-en-1-one (6)] was tested. Which pIC50 did it give?
**A.** 3.85
